Laboratory results as given in patent US10590106B2, “Certain chemical entities, compositions, and methods” (NeuPharma, Inc., priority 2012, dated 2020).
pIC50: −log10 of the molar value. Read-outs that look alike come from different tables or passages of the source.

Legend:
BRAF = BRAF (Homo sapiens (Human), UniProt P15056); assay: Inhibitory activity against kinase BRAF, Z'-LYTE method (Invitrogen); type: biochemical; details: 1 μM compound
Procedure: Inhibitory activities Inhibitory activities of compounds against BRAF, and BRAF V600E were measured by Invitrogen using Z′-LYTE® Method as briefly described in the following. 4× Test compounds are dissolved in 1% DMSO. […] ATP solutions are diluted to a 4×ATP working concentration in Kinase Buffer (50 mM HEPES pH 7.5, 0.01% BRIJ-35, 10 mM MgCl2, 1 mM EGTA). Reaction started by 30-second shaking of mixture consisting of 2.5 μL 4× test compound, […] and 2.5 μL 4×ATP Solution on Bar-coded Corning, low volume NBS, black 384-well plate (Corning Cat. #3676). Then the mixture was incubated for 60-minute at room temperature for the kinase reaction, followed by addition of 5 μL of a 1:1024 dilution of development reagent A and 30-second plate shake. The mixture was then incubated for another 60-minute at room temperature for development reaction. Fluorescence was read by plate reader. IC50 was calculated by plotting the concentration of compound vs the percentage of inhibition in treated wells using GraphPad Prism 5.
Table 2 and 3 show % inhibition at 1 μM of several compounds of the invention against BRAF and BRAF V600E, respectively, using Z′-LYTE® method.

BRAF V600E = BRAF V600E (Homo sapiens (Human), UniProt P15056, V600E); assay: Inhibitory activity against kinase BRAF V600E, Z'-LYTE method (Invitrogen); type: biochemical; details: for inhibition at 1 µM: read-out: Inhibition (% inhibition at 1 μM) against BRAF V600E
BRAF V600E, sequence (P15056 whole entry V600E): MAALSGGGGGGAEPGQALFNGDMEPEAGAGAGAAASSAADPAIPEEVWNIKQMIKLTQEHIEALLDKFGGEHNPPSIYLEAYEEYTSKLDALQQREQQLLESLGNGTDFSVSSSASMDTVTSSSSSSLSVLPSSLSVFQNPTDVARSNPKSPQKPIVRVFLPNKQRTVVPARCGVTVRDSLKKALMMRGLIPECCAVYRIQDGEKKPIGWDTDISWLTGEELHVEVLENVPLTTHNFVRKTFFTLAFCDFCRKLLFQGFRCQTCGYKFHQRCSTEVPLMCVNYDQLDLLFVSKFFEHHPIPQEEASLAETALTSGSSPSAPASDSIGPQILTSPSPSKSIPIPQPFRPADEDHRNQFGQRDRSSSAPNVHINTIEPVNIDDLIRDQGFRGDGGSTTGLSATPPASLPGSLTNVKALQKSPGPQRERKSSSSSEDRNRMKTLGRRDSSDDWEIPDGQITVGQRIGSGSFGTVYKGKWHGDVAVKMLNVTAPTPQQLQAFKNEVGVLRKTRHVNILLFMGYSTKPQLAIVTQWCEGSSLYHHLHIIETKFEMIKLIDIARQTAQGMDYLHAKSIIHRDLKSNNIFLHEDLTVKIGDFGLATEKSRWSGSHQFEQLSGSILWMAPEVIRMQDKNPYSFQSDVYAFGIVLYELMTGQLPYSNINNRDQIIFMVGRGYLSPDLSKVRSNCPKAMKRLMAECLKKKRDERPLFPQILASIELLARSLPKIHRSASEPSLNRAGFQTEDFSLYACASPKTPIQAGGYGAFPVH
In short: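 FRET-based Z′-LYTE peptide-phosphorylation assay in 50 mM HEPES pH 7.5, 0.01% BRIJ-35, 10 mM MgCl2, 1 mM EGTA; kinase reaction 60 min at room temperature, then 60 min development before fluorescence read. IC50 from concentration vs % inhibition; single-point % inhibition tested at 1 μM.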

KDR (VEGFR2) = KDR (VEGFR2) (Homo sapiens (Human), UniProt P35968); assay: Inhibitory activity against kinase KDR, Z'-LYTE method (Invitrogen); type: biochemical; details: for inhibition at 1 µM: read-out: Inhibition (% inhibition at 1 μM) against KDR
KDR (VEGFR2), sequence (P35968 20-1356): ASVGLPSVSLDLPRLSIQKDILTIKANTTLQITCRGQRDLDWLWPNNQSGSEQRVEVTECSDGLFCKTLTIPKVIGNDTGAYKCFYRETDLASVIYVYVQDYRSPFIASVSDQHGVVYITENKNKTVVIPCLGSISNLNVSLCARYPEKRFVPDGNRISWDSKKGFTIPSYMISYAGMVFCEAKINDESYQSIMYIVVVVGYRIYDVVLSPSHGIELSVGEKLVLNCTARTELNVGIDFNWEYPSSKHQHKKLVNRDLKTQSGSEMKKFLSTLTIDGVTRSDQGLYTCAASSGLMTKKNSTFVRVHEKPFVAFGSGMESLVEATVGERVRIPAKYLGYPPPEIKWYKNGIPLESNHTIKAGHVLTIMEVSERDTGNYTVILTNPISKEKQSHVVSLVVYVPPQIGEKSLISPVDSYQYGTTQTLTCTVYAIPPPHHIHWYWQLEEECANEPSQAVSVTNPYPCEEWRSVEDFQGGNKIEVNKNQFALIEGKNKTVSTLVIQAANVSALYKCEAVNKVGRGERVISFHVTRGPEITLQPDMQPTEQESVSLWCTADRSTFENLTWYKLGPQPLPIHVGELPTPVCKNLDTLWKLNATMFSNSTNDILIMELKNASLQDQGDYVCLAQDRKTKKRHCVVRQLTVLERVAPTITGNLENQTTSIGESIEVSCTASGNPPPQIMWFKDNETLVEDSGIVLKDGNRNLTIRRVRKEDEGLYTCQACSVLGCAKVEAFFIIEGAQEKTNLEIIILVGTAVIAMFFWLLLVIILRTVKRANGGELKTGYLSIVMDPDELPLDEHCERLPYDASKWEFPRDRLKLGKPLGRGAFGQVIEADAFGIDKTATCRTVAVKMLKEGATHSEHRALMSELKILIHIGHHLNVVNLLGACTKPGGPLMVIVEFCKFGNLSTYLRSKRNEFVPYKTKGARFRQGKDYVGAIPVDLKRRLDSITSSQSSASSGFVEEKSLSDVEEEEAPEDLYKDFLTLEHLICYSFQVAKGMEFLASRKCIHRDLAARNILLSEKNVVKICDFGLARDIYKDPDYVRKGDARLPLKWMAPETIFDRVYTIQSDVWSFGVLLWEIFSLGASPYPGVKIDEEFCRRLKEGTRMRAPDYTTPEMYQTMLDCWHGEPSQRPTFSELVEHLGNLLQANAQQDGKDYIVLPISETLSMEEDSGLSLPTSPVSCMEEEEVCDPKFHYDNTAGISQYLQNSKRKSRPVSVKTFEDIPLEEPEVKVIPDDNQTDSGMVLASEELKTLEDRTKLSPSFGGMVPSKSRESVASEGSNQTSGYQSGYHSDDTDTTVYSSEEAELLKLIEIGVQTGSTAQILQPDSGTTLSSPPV
In short: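 Human KDR (VEGFR2) kinase inhibition was measured with Invitrogen's Z′-LYTE® method. A 2× mixture of KDR and Tyr 01 peptide is made in 50 mM HEPES pH 7.5, 0.01% BRIJ-35, 10 mM MgCl2, 1 mM EGTA. Each 10 μL reaction holds 0.5-11.7 ng enzyme and 2 μM Tyr 01. It incubates for 1 hour, then 5 μL of Development Reagent B diluted 1:256 is added.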

A375 cells = assay: Inhibition of cancer cell growth, MTT or MTS assay, A375; type: cell-based; details: Homo sapiens, A-375; 72 h incubation
In short: (§1)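 Cells in RPMI 1640 with 10% FBS were seeded at ~2000 (A375) or 4000 (A549, Colo205) per well, grown 24 h, then exposed to compound 72 h at 1% final DMSO. Read-out by MTT (570 nm) or MTS (490 nm). IC50 from concentration vs percent inhibition, triplicates.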

A549 cells = assay: Inhibition of cancer cell growth, MTT or MTS assay, A549; type: cell-based; details: Homo sapiens, 72 h incubation
In short: as §1

BRAF, sequence (P15056 whole entry): as the sequence (P15056 whole entry V600E) above, with E600V counted along it

SMILES	inhibition at 1 µM (BRAF) [%]	inhibition at 1 µM (BRAF V600E; 1 μM compound) [%]	inhibition at 1 µM (KDR (VEGFR2); 1 μM compound) [%]	pIC50 (A375 cells)	pIC50 (A549 cells)	pIC50 (BRAF V600E)	pIC50 (KDR (VEGFR2))	inhibition at 1 µM (BRAF V600E) [%]	inhibition at 1 µM (KDR (VEGFR2)) [%]
O=C(Nc1cc(F)cc(F)c1)Nc1ccc(F)c(Oc2ccc3ncc(N4CCOCC4)nc3c2)c1 [Compound C054, 1-(3,5-difluorophenyl)-3-(4-fluoro-3-((3-morpholinoquinoxalin-6-yl)oxy)phenyl)urea]	< 70	> 89	< 70	5.30 to 6.00	< 5.30				
O=C(Nc1cccc(F)c1)Nc1ccc(F)c(Oc2ccc3ncc(N4CCOCC4)nc3c2)c1 [Compound C034, 1-(4-fluoro-3-((3-morpholinoquinoxalin-6-yl)oxy)phenyl)-3-(3-fluorophenyl)urea]	< 70	> 89	< 70	> 6.00	< 5.30				
O=C(Nc1cc(F)cc(Oc2ccc3ncc(N4CCOCC4)nc3c2)c1)c1cccc(C(F)(F)F)c1 [Compound C028, N-(3-fluoro-5-((3-morpholinoquinoxalin-6-yl)oxy)phenyl)-3-(trifluoromethyl)benzamide]	< 70	> 89	70 to 89	5.30 to 6.00	< 5.30				
O=C(Nc1ccc(Oc2ccc3ncc(N4CCNCC4)nc3c2)cc1)Nc1cccc(Cl)c1 [Compound C091, 1-(3-chlorophenyl)-3-(4-((3-(piperazin-1-yl)quinoxalin-6-yl)oxy)phenyl)urea]	> 89	> 89	> 89	5.30 to 6.00	5.30 to 5.70				
O=C(Nc1ccc(Oc2ccc3ncc(N4CCNCC4)nc3c2)cc1)Nc1ccc(C(F)(F)F)cc1 [Compound C088, 1-(4-((3-(piperazin-1-yl)quinoxalin-6-yl)oxy)phenyl)-3-(4-(trifluoromethyl)phenyl)urea]	< 70	> 89	> 89	5.30 to 6.00	5.30 to 5.70				
O=C(Nc1cccc(Cl)c1)Nc1cccc(Oc2ccc3ncc(N4CCOCC4)nc3c2)c1 [Compound C047, 1-(3-chlorophenyl)-3-(3-((3-morpholinoquinoxalin-6-yl)oxy)phenyl)urea]	70 to 89	> 89	70 to 89	5.30 to 6.00	< 5.30				
O=C(Nc1ccc(Cl)cc1)Nc1cccc(Oc2ccc3ncc(N4CCOCC4)nc3c2)c1 [Compound C048, 1-(4-chlorophenyl)-3-(3-((3-morpholinoquinoxalin-6-yl)oxy)phenyl)urea]	70 to 89	> 89	70 to 89	5.30 to 6.00	5.30 to 5.70				
O=C(Nc1ccc(F)cc1)Nc1ccc(Oc2ccc3ncc(N4CCNCC4)nc3c2)cc1 [Compound C090, 1-(4-fluorophenyl)-3-(4-((3-(piperazin-1-yl)quinoxalin-6-yl)oxy)phenyl)urea]	70 to 89	> 89	> 89	5.30 to 6.00	> 5.70				
O=C(Nc1ccc(F)c(Oc2ccc3ncc(N4CCNCC4)nc3c2)c1)Nc1ccc(Cl)c(C(F)(F)F)c1 [Compound C066, 1-(4-chloro-3-(trifluoromethyl)phenyl)-3-(4-fluoro-3-((3-(piperazin-1-yl)quinoxalin-6-yl)oxy)phenyl)urea]	< 70	> 89	> 89	5.30 to 6.00	> 5.70				
O=C(Nc1ccc(Cl)cc1)Nc1ccc(Oc2ccc3ncc(N4CCNCC4)nc3c2)cc1 [Compound C092, 1-(4-chlorophenyl)-3-(4-((3-(piperazin-1-yl)quinoxalin-6-yl)oxy)phenyl)urea]	> 89	> 89	70 to 89	< 5.30	5.30 to 5.70				
N#Cc1ccc(NC(=O)Nc2cccc(Oc3ccc4nccnc4c3)c2)cc1C(F)(F)F [Compound C073, 1-(4-cyano-3-(trifluoromethyl)phenyl)-3-(3-(quinoxalin-6-yloxy)phenyl)urea]	< 70			< 5.30	5.30 to 5.70			> 89	70 to 89

Further lines, with some results ahead:

inhibition at 1 µM (BRAF) [%]	inhibition at 1 µM (BRAF V600E; 1 μM compound) [%]	inhibition at 1 µM (KDR (VEGFR2); 1 μM compound) [%]	pIC50 (A375 cells)	pIC50 (A549 cells)	pIC50 (BRAF V600E)	pIC50 (KDR (VEGFR2))	SMILES	inhibition at 1 µM (BRAF V600E) [%]	inhibition at 1 µM (KDR (VEGFR2)) [%]
70 to 89	> 89	70 to 89	< 5.30	< 5.30			O=C(Nc1cccc(Cl)c1)Nc1ccc(Oc2ccc3nccnc3c2)cc1F [Compound C093, 1-(3-chlorophenyl)-3-(2-fluoro-4-(quinoxalin-6-yloxy)phenyl)urea]		
< 70	> 89	70 to 89	< 5.30	< 5.30			O=C(Nc1cccc(Oc2ccc3nccnc3c2)c1)c1ccc(Cl)c(C(F)(F)F)c1 [Compound C006, 4-chloro-N-(3-(quinoxalin-6-yloxy)phenyl)-3-(trifluoromethyl)benzamide]		
< 70	> 89	> 89	< 5.30	5.30 to 5.70	< 7.00	> 7.00	O=C(Nc1cccc(Oc2ccc3nccnc3c2)c1)Nc1cccc(C(F)(F)F)c1 [Compound C003, 1-(3-(quinoxalin-6-yloxy)phenyl)-3-(3-(trifluoromethyl)phenyl)urea]		
< 70	> 89	70 to 89	5.30 to 6.00	5.30 to 5.70	< 7.00	< 7.00	O=C(Nc1ccc(Oc2ccc3nccnc3c2)cc1)Nc1cccc(C(F)(F)F)c1 [Compound C075, 1-(4-(quinoxalin-6-yloxy)phenyl)-3-(3-(trifluoromethyl)phenyl)urea]		
70 to 89	70 to 89	70 to 89	< 5.30	< 5.30	> 7.00	< 7.00	O=C(Nc1cccc(Oc2ccc3nccnc3c2)c1)c1cccc(C(F)(F)F)c1 [Compound C005, N-(3-(quinoxalin-6-yloxy)phenyl)-3-(trifluoromethyl)benzamide]		
> 89	> 89	> 89	< 5.30	< 5.30			N#Cc1ccc(NC(=O)Nc2cccc(Oc3ccc4nccnc4c3)c2)cc1 [Compound C070, 1-(4-cyanophenyl)-3-(3-(quinoxalin-6-yloxy)phenyl)urea]		
< 70	> 89	70 to 89	5.30 to 6.00	> 5.70			O=C(Nc1cc(F)cc(Oc2ccc3nccnc3c2)c1)Nc1cccc(C(F)(F)F)c1 [Compound C021, 1-(3-fluoro-5-(quinoxalin-6-yloxy)phenyl)-3-(3-(trifluoromethyl)phenyl)urea]		
